Test results published in US6794516B2, “Synthesis of clasto-lactacystin β-lactone and analogs thereof” (Millennium Pharmaceuticals, Inc., priority 1997, dated 2004).
Entries after “also recorded” stand apart in the source; their conditions may differ.

Key:
[1] = physchem; conditions: buffer, pH 7.8
Description: (§1) The half-lives (ti1/2) for hydrolysis of β-lactone analogs to the corresponding dihydroxy acids were measured at 37° C. at a concentration of 200 mM in 20 mM HEPES, 0.5 mM EDTA, pH 7.8. Absorbance was measured for at least five half-lives (approximately 1 hour) at 230 nm, the wavelength at which there is the greatest difference in extinction coefficients for the lactone and dihydroxy.

[2] = tested on: C2C12 cells; test: Inhibition of intracellular protein degradation in C2C12 cells; format: cell-based, mouse; conditions: for IC50: Mus musculus, C2C12 cells, 35S-methionine labelled, TCA soluble radioactivity
Description: C2C12 cells (a mouse myoblast line) were labeled for 48 hrs with ^35S-methionine. The cells were then washed and preincubated for 2 hrs in the same media supplemented with 2 mM unlabelled methionine. The media was removed and replaced with a fresh aliquot of the preincubation media containing 50% serum, and a concentration of the compound to be tested. The media was then removed and made up to 10% TCA and centrifuged. The TCA soluble radioactivity was counted. Inhibition of proteolysis was calculated as the percent decrease in TCA soluble radioactivity.

[3] = target: T1, PA28-activated 20S proteasome (Homo sapiens, UniProt P28074); test: Inactivation of the chymotrypsin-like activity of PA28-activated 20S proteasome (Suc-Leu-Leu-Val-Tyr-AMC); format: biochemical; conditions: for kinact/KI: rate of enzyme inactivation, chymotrypsin-like activity of PA28-activated 20S proteasome, 37° C., pH 8.0, read-out: Kobs/[I]
T1 construct: from tissue
Description: Purification of 20S proteasome and proteasome activator PA28 was performed as previously described (Dick et al., J. Biol. Chem. 271:7273 (1996)).
2 mL of assay buffer (20 mM HEPES, 0.5 mM EDTA, pH 8.0) and Suc-Leu-Leu-Val-Tyr-AMC in dimethyl sulfoxide were added to a 3 mL fluorescent cuvette, and the cuvette was placed in the jacketed cell holder of a Hitachi F-2000 fluorescence spectrophotometer. The temperature was maintained at 37° C. by a circulating water bath. 0.34 mg of PA28 were added and the reaction progress was monitored by the increase in fluorescence at 440 nm (λex=380 nm) that accompanies production of free AMC. […] After reaching a steady state of substrate hydrolysis, lactacystin was added to a final concentration of […], and the reaction was monitored for 1 h. The fluorescence (F) versus time (t) data were collected on a microcomputer using LAB CALC (Galactic) software. kinact values were estimated by a nonlinear least-squares fit of the data to the first order equation:
where C=Ft=0 and A=Ft=∞−Ft=0.

[4] = Lactone hydrolysis to the dihydroxy acid; conditions: for half-life at 200 mM: HEPES/EDTA buffer, pH 7.8
Description: as §1

[5] = tested on: Male Sprague Dawley rats; test: Middle cerebral artery (MCA) occlusion/reperfusion: infarct size and neurological score; format: in vivo, rat; conditions: for infarct volume: rat MCA occlusion
Description: Male Sprague Dawley rats (250-400 g) were anesthetized with haloethane and subjected to middle cerebral artery (MCA) occlusion using a nylon filament for 2 h. Subsequently, the filament was removed and reperfusion of the infarcted tissue occurred for 24 hours before the rat was sacrificed.
Immediately after the filament was withdrawn, the animals were evaluated using a neurological scoring system. Neurological scores were expressed on a scale from 0 to 10, with 0 representing no neurological deficit and 10 representing severe neurological deficit. After 24 hours and before sacrifice, animals were evaluated a second time using the same neurological scoring system.
Staining of coronal sections (2.0 mm×7-8) with triphenyltetrazolium chloride (TTC) taken throughout the brain were evaluated under blinded conditions using image analysis to determine infarct size.
Rats were given i.v. bolus injections (1.0 mL/kg) of either vehicle (50% propylene glycol/saline; n=8) or 7-n-propyl-clasto-lactacystin β-lactone (3b) (0.3 mg/kg; n=7) at 2 hours after the start of the occlusion. Two additional groups of rats were given i.v. bolus injections (1.0 mL/kg) of 3b at 0 minutes, 2 hours, and 6 hours after the start of the occlusion. One group (0.1 mg/kg×3; n=6) received 0.1 mg/kg at each of these times, while another group (0.3 mg/kg×3; n=7) received 0.3 mg/kg at each of the three timepoints.

SMILES | IC50 [2] [nM] | kinact/KI [3] [M⁻¹ s⁻¹] | half-life at 200 mM [4] [min] | other results
CC(C)[C@H](O)[C@@]12NC(=O)[C@H](C)[C@@H]1OC2=O [Compound 2, clasto-lactacystin β-lactone] | 700 to 1100 | 20000 |  | half-life at 200 mM [1]: 13 min
CC(C)C[C@H]1C(=O)N[C@@]2([C@@H](O)C(C)C)C(=O)O[C@@H]12 [Compound 3d] | 510 | 17000 | 16.8 | 
CCCC[C@H]1C(=O)N[C@@]2([C@@H](O)C(C)C)C(=O)O[C@@H]12 [Compound 3c] | 330 | 38000 | 17 | 
CC[C@H]1C(=O)N[C@@]2([C@@H](O)C(C)C)C(=O)O[C@@H]12 [Compound 3a] | 320 | 39000 | 15.3 | 
CCC[C@H]1C(=O)N[C@@]2([C@@H](O)C(C)C)C(=O)O[C@@H]12 [Compound 3b, 7-n-propyl-clasto-lactacystin β-lactone] | 290 | 46500 | 15.3 | neurological score ([5]; i.v. 0.1 mg/kg×3 dosage group): No significant improvement; neurological score ([5]; i.v. 0.3 mg/kg×3 dosage group): No significant improvement; infarct volume decreased by ([5]; rat MCA occlusion 2 h, reperfusion 24 h, single i.v. dose 0.3 mg/kg at 2 hours after start of occlusion): 50%; infarct volume ([5]; i.v. 0.1 mg/kg×3 (0 minutes, 2 hours, 6 hours)): not significantly decreased; infarct volume ([5]; i.v. 0.3 mg/kg×3 (0 minutes, 2 hours, 6 hours)): not significantly decreased; mean neurological score at 24 hours ([5]; scale 0 to 10 (10 = severe deficit), single i.v. 0.3 mg/kg dose, vehicle 8.7±0.6): 4±1; neurological improvement ([5]; single i.v. 0.3 mg/kg dose, versus vehicle at 24 hours): 60%
CO[C@H]1C(=O)N[C@@]2([C@@H](O)C(C)C)C(=O)O[C@@H]12 [Compound 3f] | 86000 | 82200 | 3.7 | relative hydrolysis rate ([4]; compared to 2): more rapidly hydrolyzed; relative potency in cell culture ([2]; compared to 2): less potent than 2; also recorded: much weaker activity; relative potency in the enzyme assay ([3]; compared to the other compounds of Table 1 / to 2): most potent
